Assay results as given in patent EP1268487B1, “TRICYCLIC PROTEIN KINASE INHIBITORS” (Wyeth, priority 2000, dated 2001).

Molecular target: T1, p60^c-src (Homo sapiens, UniProt P12931)
T1 construct: purchased Upstate Biotechnologies
Test: Src kinase assay (ELISA format)
Assay type: biochemical
Protocol: Inhibitors of p60^c-src (partially purified preparation purchased from Upstate Biotechnologies) tyrosine kinase activity are analyzed in an ELISA format. The Boehringer Mannheim Tyrosine Kinase Assay Kit (Catalog number 1-534505) with a cdc2 substrate peptide containing Tyr15 is used for the assay. HRP-conjugated anti-phosphotyrosine is used to detect phosphorylated peptide via a color reaction. Conditions recommended by the manufacturer are employed.
Reaction conditions: Five microliter aliquots of each compound prepared fresh at the time of the assay are added as a solution in 10mM HEPES pH 7.5, 10% DMSO to the reaction well. Thirty-five microliters of reaction mix containing Src, buffer and peptide/bovine serum albumin mix are added to the compound wells and incubated at 30°C for 10 minutes (reaction buffer: 50mM TrisHCl pH 7.5, 10mM MgCl2, 0.1mM EGTA, 0.5mM Na3VO4). The reaction is started by addition of 10 microliters of ATP, incubated at 30°C for 1 hour, and stopped by addition of 20 microliters of 0.5M EDTA. The reaction mixture with the phosphorylated peptide was then transferred to a streptavidin-coated microtiter plate (provided in the kit) and allowed to bind for 20 minutes. […] Substrate (provided in the kit) was added and absorbance at 405nm was measured.
Activity was determined as % inhibition as calculated by the formula: (1 - Abs/Abs(max)) x 100 = % inhibition. […]

T1 sequence (P12931 whole entry): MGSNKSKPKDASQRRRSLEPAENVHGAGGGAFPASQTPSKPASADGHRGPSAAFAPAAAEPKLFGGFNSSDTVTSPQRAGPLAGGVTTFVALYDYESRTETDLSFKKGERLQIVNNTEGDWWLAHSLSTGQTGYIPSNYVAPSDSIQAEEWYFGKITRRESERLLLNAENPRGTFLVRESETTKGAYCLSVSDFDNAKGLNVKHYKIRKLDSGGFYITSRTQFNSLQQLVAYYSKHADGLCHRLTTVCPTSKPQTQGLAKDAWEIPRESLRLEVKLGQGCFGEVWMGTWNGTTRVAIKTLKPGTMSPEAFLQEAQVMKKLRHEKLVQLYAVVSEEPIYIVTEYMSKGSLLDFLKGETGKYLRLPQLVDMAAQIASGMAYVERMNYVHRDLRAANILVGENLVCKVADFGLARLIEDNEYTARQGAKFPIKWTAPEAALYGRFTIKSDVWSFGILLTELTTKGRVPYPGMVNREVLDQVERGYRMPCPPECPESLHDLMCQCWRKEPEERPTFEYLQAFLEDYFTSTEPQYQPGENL

IC50: 1010 nM
Compound: CCN1CCN(CCCCN2CCOc3cc4c(Nc5ccc(Cl)cc5Cl)c(C#N)cnc4cc32)CC1 [Example 24, 9-(2,4-Dichloroanilino)-4-[4-(4-ethyl-1-piperazinyl)butyl]-3,4-dihydro-2H-[1,4]oxazino[2,3-g]quinoline-8-carbonitrile]
